Reference: patent US20240238424A1, “HETEROBIFUNCTIONAL COMPOUNDS AND METHODS OF TREATING DISEASE” (Halda Therapeutics OpCo, Inc., priority 2021, published 2024)

Legend:
Format in all cases: cell-based
[1] = tested on: U937 cells; test: Cellular growth inhibition assay (CTG), U937 cells; details: Homo sapiens, U-937, CellTiter-Glo 2.0, day-5
Procedure: (§1) Cells were seeded in Poly-D-lysine-treated 384-well white plates, with 25 μL cell suspension at 250 cells/well for continuous treatments, and 1000 cells/well for washout treatments. Plates were spun at 300×g for 3 minutes, and cells were cultured at 37° C. with 5% CO2 in a humidified tissue culture incubator.
(§2) After 24 hours, the test compounds were diluted with cell culture medium in 96 deep well plates. DMSO was used as a negative control. A 25 μL aliquot of compound-containing medium was added in each well, at a final top concentration of 10 μM or 30 μM test compound, with 3-fold dilutions. For washout assays, after 4 hours, cell medium with compound was removed, and the cells were washed with 75p L fresh medium. Plates were then spun at 300×g for 3 minutes and replaced with 50 μL fresh medium in each well. Plates were then spun at 300×g for 3 minutes again and cultured at 37° C. with 5% CO2.
(§3) At day-0 and day-5 of compound treatments, cell viability was quantified with CellTiter-Glo 2.0 (Promega). After equilibrating cell plates at room temperature for 30 minutes, 25 μL CellTiter-Glo 2.0 reagent was dispensed into each well (on top of 50 μL of cell culture). Plates were mixed on a shaker for 2 minutes at 500 rpm, followed by a 10-minute incubation at room temperature. Luminescence readings were measured with an EnVision Plate Reader. Data was normalized to DMSO treated day-0 cell wells. A four-parameter non-linear regression curve fit was applied to dose-response data in Prism to determine the half maximal growth inhibitory concentration (GI50) of each compound.

[2] = target: T1, GSPT1 (Homo sapiens, UniProt P15170+Q96SW2); test: GSPT1 HiBit degradation assay; details: HEK293 LgBiT cells expressing GSPT1_HiBiT, luminescence after 6 hours
T1 construct: host or cells: HEK293 LgBiT cell line
Outline: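 Degradation readout is luminescence at 6 h, with DC50 taken as the concentration giving 50% GSPT1 loss. Compound titrations were added together with endurazine (0.5× final) to HEK293 LgBiT/GSPT1-HiBiT cells seeded the day before and kept at 37 °C.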

[3] = tested on: 293 mutant EGFR_T790M L858R Cells; test: Cellular growth inhibition assay (CTG), 293 mutant EGFR_T790M L858R cells; details: 293 mutant EGFR T790M L858R cells, CellTiter-Glo 2.0, day-5
Procedure: as §1, §2, §3

[4] = tested on: HeLa KRas G12C cells; test: Cellular growth inhibition assay (CTG), HeLa KRas G12C cells; details: Homo sapiens, CellTiter-Glo 2.0, day-5
Outline: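 Cells were seeded at 250 cells/well (continuous) or 1000 cells/well (washout, compound removed after 4 h), then treated after 24 h with 3-fold dilutions from a 10 μM or 30 μM final top concentration. CellTiter-Glo 2.0 luminescence at day 0 and day 5 was normalized to DMSO day-0 wells; GI50 from four-parameter fit.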

T1 sequence (P15170 whole entry): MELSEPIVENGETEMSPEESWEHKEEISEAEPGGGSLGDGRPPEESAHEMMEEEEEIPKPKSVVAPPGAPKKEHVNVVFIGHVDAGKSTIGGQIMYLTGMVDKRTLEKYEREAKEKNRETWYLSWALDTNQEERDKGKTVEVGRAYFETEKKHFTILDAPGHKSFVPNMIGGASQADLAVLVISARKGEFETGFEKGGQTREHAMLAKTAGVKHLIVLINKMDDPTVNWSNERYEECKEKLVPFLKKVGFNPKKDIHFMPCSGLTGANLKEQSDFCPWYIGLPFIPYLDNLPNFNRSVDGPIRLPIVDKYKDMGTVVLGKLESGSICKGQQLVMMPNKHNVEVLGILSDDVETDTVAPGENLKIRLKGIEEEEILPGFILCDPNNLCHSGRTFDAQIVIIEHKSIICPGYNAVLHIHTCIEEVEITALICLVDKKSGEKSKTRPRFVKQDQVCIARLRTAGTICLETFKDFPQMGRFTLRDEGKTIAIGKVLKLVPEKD
T1 sequence (Q96SW2 whole entry): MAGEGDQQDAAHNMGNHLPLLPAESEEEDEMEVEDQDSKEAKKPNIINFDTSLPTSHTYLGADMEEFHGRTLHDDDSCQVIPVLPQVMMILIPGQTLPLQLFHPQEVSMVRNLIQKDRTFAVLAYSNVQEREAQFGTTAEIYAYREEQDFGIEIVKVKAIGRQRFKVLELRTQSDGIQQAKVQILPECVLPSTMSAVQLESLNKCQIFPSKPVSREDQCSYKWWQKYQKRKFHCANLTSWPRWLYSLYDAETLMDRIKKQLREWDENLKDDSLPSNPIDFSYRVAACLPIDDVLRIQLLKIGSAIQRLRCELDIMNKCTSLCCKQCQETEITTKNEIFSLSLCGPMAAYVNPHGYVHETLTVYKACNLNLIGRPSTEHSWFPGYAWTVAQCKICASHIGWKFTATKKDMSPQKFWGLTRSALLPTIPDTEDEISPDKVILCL
T1 sequence (Q16531 whole entry partner): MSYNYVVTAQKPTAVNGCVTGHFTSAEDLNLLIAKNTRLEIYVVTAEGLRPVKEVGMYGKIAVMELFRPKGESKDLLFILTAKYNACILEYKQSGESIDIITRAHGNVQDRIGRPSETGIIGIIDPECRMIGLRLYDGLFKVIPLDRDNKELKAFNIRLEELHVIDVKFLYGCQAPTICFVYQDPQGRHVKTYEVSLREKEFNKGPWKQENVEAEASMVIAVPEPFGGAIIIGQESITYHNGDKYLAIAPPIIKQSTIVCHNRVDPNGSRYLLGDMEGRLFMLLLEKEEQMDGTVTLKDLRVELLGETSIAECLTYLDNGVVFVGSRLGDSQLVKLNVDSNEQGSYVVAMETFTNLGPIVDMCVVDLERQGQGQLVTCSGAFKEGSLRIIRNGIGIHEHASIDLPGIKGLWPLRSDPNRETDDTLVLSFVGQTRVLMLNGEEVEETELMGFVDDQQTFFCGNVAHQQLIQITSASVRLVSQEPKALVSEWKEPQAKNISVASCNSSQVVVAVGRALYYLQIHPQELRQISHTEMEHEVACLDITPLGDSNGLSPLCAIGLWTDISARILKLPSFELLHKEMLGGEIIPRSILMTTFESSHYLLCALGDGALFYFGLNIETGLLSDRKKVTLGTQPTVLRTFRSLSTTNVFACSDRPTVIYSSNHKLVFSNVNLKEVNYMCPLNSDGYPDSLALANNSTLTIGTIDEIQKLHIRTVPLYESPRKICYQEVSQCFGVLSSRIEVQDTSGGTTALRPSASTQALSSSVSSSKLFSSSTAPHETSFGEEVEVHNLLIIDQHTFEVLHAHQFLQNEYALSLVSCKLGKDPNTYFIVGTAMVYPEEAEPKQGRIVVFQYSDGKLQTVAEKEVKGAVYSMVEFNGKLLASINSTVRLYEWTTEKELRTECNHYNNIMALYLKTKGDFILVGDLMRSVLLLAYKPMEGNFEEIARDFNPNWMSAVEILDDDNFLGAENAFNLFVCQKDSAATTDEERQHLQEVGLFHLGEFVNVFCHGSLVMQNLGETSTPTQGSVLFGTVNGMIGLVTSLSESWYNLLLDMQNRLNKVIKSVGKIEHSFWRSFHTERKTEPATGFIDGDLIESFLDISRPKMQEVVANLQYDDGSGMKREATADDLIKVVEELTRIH

| SMILES | GI50 [1] [nM] | DC50 ([2]; Table 3) [nM] | DC50 ([2]; Table 3A) [nM] | GI50 [3] [nM] | GI50 [4] [nM] |
| --- | --- | --- | --- | --- | --- |
| Nc1ncnc2c1c(-c1ccc(Oc3ccccc3)cc1)nn2[C@@H]1CCCN(C(=O)/C=C/COCCOCCOCCOCCOCCOCCOCCOc2cc(Cl)cc(NC(=O)NCc3ccc4c(c3)CN(C3CCC(=O)NC3=O)C4=O)c2)C1 (stereo partly drawn) [Compound I-30] | 100 to 1000 |  |  |  |  |
| Nc1ncnc2c1c(-c1ccc(Oc3ccccc3)cc1)nn2[C@@H]1CCCN(C(=O)/C=C/COCCOCCOCCOCCOCCOCCOCCOCCOCCOc2cc(Cl)cc(NC(=O)NCc3ccc4c(c3)CN(C3CCC(=O)NC3=O)C4=O)c2)C1 (stereo partly drawn) [Compound I-31] | 1000 to 5000 | 250 to 5000 |  |  |  |
| Nc1ncnc2c1c(-c1ccc(Oc3ccccc3)cc1)nn2[C@@H]1CCCN(C(=O)/C=C/COCCOCCOCCOCCOCCOCCOCCOCCOCCOCCOCCOc2cc(Cl)cc(NC(=O)NCc3ccc4c(c3)CN(C3CCC(=O)NC3=O)C4=O)c2)C1 (stereo partly drawn) [Compound I-32] | 1000 to 5000 |  |  |  |  |
| CN(C/C=C/C(=O)N1CCC[C@@H](n2nc(-c3ccc(Oc4ccccc4)cc3)c3c(N)ncnc32)C1)CCOCCOCCOCCOCCCCCCCCc1cc(Cl)cc(NC(=O)NCc2ccc3c(c2)CN(C2CCC(=O)NC2=O)C3=O)c1 (stereo partly drawn) [Compound I-67] | < 100 | < 250 |  |  |  |
| CN(C/C=C/C(=O)N1CCC[C@@H](n2nc(-c3ccc(Oc4ccccc4)cc3)c3c(N)ncnc32)C1)CCOCCOCCOCCOCCOCCOCCCCCCCCc1cc(Cl)cc(NC(=O)NCc2ccc3c(c2)CN(C2CCC(=O)NC2=O)C3=O)c1 (stereo partly drawn) [Compound I-72] | < 100 | < 250 |  |  |  |
| C=CC(=O)Nc1cc(Nc2nccc(-c3cn(C)c4ccccc34)n2)c(OC)cc1N(C)CCN(C)CCOCCOCCOCCCCCc1cc(Cl)cc(NC(=O)NCc2ccc3c(c2)CN(C2CCC(=O)NC2=O)C3=O)c1 (stereo not drawn) [Compound I-102] |  |  | 250 to 5000 | 1000 to 5000 |  |
| CN(C/C=C/C(=O)N1CCN(c2nc(OC[C@@H]3CCCN3C)nc3c2CCN(c2cccc4cccc(Cl)c24)C3)C[C@@H]1CC#N)CCOCCOCCOCCOCCOCCCCCc1cc(Cl)cc(NC(=O)NCc2ccc3c(c2)CN(C2CCC(=O)N(C)C2=O)C3=O)c1 (stereo partly drawn) [Compound I-116] |  |  | 250 to 5000 |  | 1000 to 3000 |
| C=C(F)C(=O)N1CCN(c2nc(OC[C@@H]3CCCN3CCCOCCOCCOCCOCCOCCOCCOCCCCCc3cc(Cl)cc(NC(=O)NCc4ccc5c(c4)CN(C4CCC(=O)NC4=O)C5=O)c3)nc3c2CCN(c2cccc4cccc(Cl)c24)C3)C[C@@H]1CC#N (stereo partly drawn) [Compound I-118] |  |  | 250 to 5000 |  | 1000 to 3000 |
| COc1cc(N2CCN(C(=O)COCCOCCOCCOCCOCCOCCOCCCCCc3cc(Cl)cc(NC(=O)NCc4ccc5c(c4)CN(C4CCC(=O)NC4=O)C5=O)c3)CC2)ccc1Nc1ncc(Cl)c(Nc2ccccc2P(C)(C)=O)n1 (stereo not drawn) [Compound I-120] |  |  | 250 to 5000 | 1000 to 5000 |  |
| C=CC(=O)N[C@@H]1CN(c2nc(Nc3cn(CCOCCOCCOCCCCCc4cc(Cl)cc(NC(=O)NCc5ccc6c(c5)CN(C5CCC(=O)NC5=O)C6=O)c4)nc3OC)c3ncn(C)c3n2)C[C@H]1F (stereo partly drawn) [Compound I-122] |  |  | < 250 | 100 to 1000 |  |
| C=CC(=O)Nc1cc(Nc2nccc(-c3cn(C)c4ccccc34)n2)c(OC)cc1N(C)CCN(C)CCOCCOCCOCCOCCOCCCCCc1cc(Cl)cc(NC(=O)NCc2ccc3c(c2)CN(C2CCC(=O)NC2=O)C3=O)c1 (stereo not drawn) [Compound I-125] |  |  | 250 to 5000 | 1000 to 5000 |  |
| C=CC(=O)NC1CN(c2nc(Nc3cn(CCOCCOCCOCCOCCOCCOCCOCCCCCc4cc(Cl)cc(NC(=O)NCc5ccc6c(c5)CN(C5CCC(=O)NC5=O)C6=O)c4)nc3OC)c3ncn(C)c3n2)C[C@H]1F (stereo partly drawn) [Compound I-130] |  |  | 250 to 5000 | 100 to 1000 |  |
| COc1nn(C)cc1Nc1nc(N2CC(NC(=O)/C=C/CN(C)CCOCCOCCOCCOCCOCCOCCOCCOCCOCCCCCc3cc(Cl)cc(NC(=O)NCc4ccc5c(c4)CN(C4CCC(=O)NC4=O)C5=O)c3)[C@H](F)C2)nc2c1ncn2C (stereo partly drawn) [Compound I-131] |  |  | 250 to 5000 | 1000 to 5000 |  |
| COc1cc(N(C)CCN(C)C)c(NC(=O)/C=C/CN(C)CCOCCOCCOCCOCCOCCOCCOCCOCCOCCCCCc2cc(Cl)cc(NC(=O)NCc3ccc4c(c3)CN(C3CCC(=O)NC3=O)C4=O)c2)cc1Nc1nccc(-c2cn(C)c3ccccc23)n1 (stereo not drawn) [Compound I-132] |  |  | 250 to 5000 | 1000 to 5000 |  |
| C=C(F)C(=O)N1CCN(c2nc(OC[C@@H]3CCCN3CCCOCCOCCOCCOCCOCCOCCOCCOCCOCCCCCc3ccc(Cl)cc3NC(=O)NCc3ccc4c(c3)CN(C3CCC(=O)NC3=O)C4=O)nc3c2CCN(c2cccc4cccc(Cl)c24)C3)C[C@@H]1CC#N (stereo partly drawn) [Compound I-134] |  |  | 250 to 5000 |  | 3000 to 10000 |
| C=C(F)C(=O)N1CCN(c2nc(OC[C@@H]3CCCN3CCCOCCOCCOCCOCCOCCOCCOCCCCCc3ccc(Cl)cc3NC(=O)NCc3ccc4c(c3)CN(C3CCC(=O)NC3=O)C4=O)nc3c2CCN(c2cccc4cccc(Cl)c24)C3)C[C@@H]1CC#N (stereo partly drawn) [Compound I-137] |  |  | 250 to 5000 |  | 3000 to 10000 |
| C=C(F)C(=O)N1CCN(c2nc(OC[C@@H]3CCCN3CCCOCCOCCOCCOCCOCCOCCOCCOCCOCCOCCOCCCCCc3ccc(Cl)cc3NC(=O)NCc3ccc4c(c3)CN(C3CCC(=O)NC3=O)C4=O)nc3c2CCN(c2cccc4cccc(Cl)c24)C3)C[C@@H]1CC#N (stereo partly drawn) [Compound I-138] |  |  | 250 to 5000 |  | 3000 to 10000 |
| COc1cc(N(C)CCN(C)C)c(NC(=O)/C=C/CN(C)CCOCCOCCOCCCCCc2cc(Cl)cc(NC(=O)NCc3ccc4c(c3)CN(C3CCC(=O)NC3=O)C4=O)c2)cc1Nc1nccc(-c2cn(C)c3ccccc23)n1 (stereo not drawn) [Compound I-145] |  |  | 250 to 5000 | 1000 to 5000 |  |
| COc1cc(N(C)CCN(C)C)c(NC(=O)/C=C/CN(C)CCOCCOCCOCCOCCOCCOCCOCCCCCc2cc(Cl)cc(NC(=O)NCc3ccc4c(c3)CN(C3CCC(=O)NC3=O)C4=O)c2)cc1Nc1nccc(-c2cn(C)c3ccccc23)n1 (stereo not drawn) [Compound I-146] |  |  | 250 to 5000 | 1000 to 5000 |  |
| C=C(F)C(=O)N1CCN(c2nc(OC[C@@H]3CCCN3CCCOCCOCCOCCOCCOCCOCCOCCCCCc3cccc(NC(=O)NCc4ccc5c(c4)CN(C4CCC(=O)NC4=O)C5=O)n3)nc3c2CCN(c2cccc4cccc(Cl)c24)C3)C[C@@H]1CC#N (stereo partly drawn) [Compound I-147] |  |  | 5000 to 10000 |  | 3000 to 10000 |
| C=C(F)C(=O)N1CCN(c2nc(OC[C@@H]3CCCN3CCCOCCOCCOCCOCCOCCOCCOCCOCCOCCOCCOCCCCCc3cccc(NC(=O)NCc4ccc5c(c4)CN(C4CCC(=O)NC4=O)C5=O)n3)nc3c2CCN(c2cccc4cccc(Cl)c24)C3)C[C@@H]1CC#N (stereo partly drawn) [Compound I-148] |  |  | 250 to 5000 |  | 3000 to 10000 |
| COc1nn(C)cc1Nc1nc(N2CC(NC(=O)/C=C/CN(C)CCOCCOCCOCCCCCc3cc(Cl)cc(NC(=O)NCc4ccc5c(c4)CN(C4CCC(=O)NC4=O)C5=O)c3)[C@H](F)C2)nc2c1ncn2C (stereo partly drawn) [Compound I-150] |  |  | 250 to 5000 | 1000 to 5000 |  |
| COc1cc(N(C)CCN(C)C)c(NC(=O)/C=C/CN(C)CCOCCOCCOCCOCCOCCCCCc2cc(Cl)cc(NC(=O)NCc3ccc4c(c3)CN(C3CCC(=O)NC3=O)C4=O)c2)cc1Nc1nccc(-c2cn(C)c3ccccc23)n1 (stereo not drawn) [Compound I-151] |  |  | 250 to 5000 | 100 to 1000 |  |
| C=C(F)C(=O)N1CCN(c2nc(OC[C@@H]3CCCN3CCCOCCOCCOCCOCCOCCCCCc3cccc(NC(=O)NCc4ccc5c(c4)CN(C4CCC(=O)NC4=O)C5=O)n3)nc3c2CCN(c2cccc4cccc(Cl)c24)C3)C[C@@H]1CC#N (stereo partly drawn) [Compound I-152] |  |  | > 10000 |  | 3000 to 10000 |
| C=CC(=O)NC1CN(c2nc(Nc3cn(CCOCCOCCOCCOCCOCCCCCc4cc(Cl)cc(NC(=O)NCc5ccc6c(c5)CN(C5CCC(=O)NC5=O)C6=O)c4)nc3OC)c3ncn(C)c3n2)C[C@H]1F (stereo partly drawn) [Compound I-155] |  |  | < 250 | 100 to 1000 |  |
| COc1nn(C)cc1Nc1nc(N2CC(NC(=O)/C=C/CN(C)CCOCCOCCOCCOCCOCCCCCc3cc(Cl)cc(NC(=O)NCc4ccc5c(c4)CN(C4CCC(=O)NC4=O)C5=O)c3)[C@H](F)C2)nc2c1ncn2C (stereo partly drawn) [Compound I-159] |  |  | 250 to 5000 | 1000 to 5000 |  |
| C=CC(=O)Nc1cc(Nc2nccc(-c3cn(C)c4ccccc34)n2)c(OC)cc1N(C)CCN(C)CCOCCOCCOCCOCCOCCOCCOCCOCCOCCCCCc1cc(Cl)cc(NC(=O)NCc2ccc3c(c2)CN(C2CCC(=O)NC2=O)C3=O)c1 (stereo not drawn) [Compound I-160] |  |  | 250 to 5000 | 100 to 1000 |  |
| C=CC(=O)Nc1cc(Nc2nccc(-c3cn(C)c4ccccc34)n2)c(OC)cc1N(C)CCN(C)CCOCCOCCOCCOCCOCCOCCOCCOCCOCCOCCOCCCCCc1cc(Cl)cc(NC(=O)NCc2ccc3c(c2)CN(C2CCC(=O)NC2=O)C3=O)c1 (stereo not drawn) [Compound I-161] |  |  | 250 to 5000 | 1000 to 5000 |  |
